Experimental data: patent US11999716B2, “WDR5 inhibitors and modulators” (priority 2018, dated 2024)

Test system: MV4:11 human cancer cell lines
Assay: Cellular viability / anti-proliferative activity, CellTiter-Glo, 5 day protocol
Format: cell-based
Details: Homo sapiens, MV4-11, 120 h, MV4:11 cells; 5 day incubation; CellTiter-Glo; mean of minimum two replicates; read-out: GI50 on cellular proliferation of MV4:11 human cancer cell lines
How it was run: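 Compounds were tested over 22 two-fold dilutions starting at 30 μM in 0.3% DMSO, with 200 cells per well (7200 cells/mL). Viability was measured by CellTiter-Glo luminescence at day 5.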

Row | GI50 [nM] | Structure (SMILES)
1 | < 50 | COc1ccnc(CN2CCc3c(cc(Cn4ccnc4N)cc3-c3cn(C)nc3C(F)(F)F)C2=O)c1 [Example 65, 7-((2-Amino-1H-imidazol-1-yl)methyl)-2-((4-methoxypyridin-2-yl)methyl)-5-(1-methyl-3-(trifluoromethyl)-1H-pyrazol-4-yl)-3,4-dihydroisoquinolin-1(2H)-one]
2 | < 50 | Cc1cc([C@H](C)N2CCc3c(cc(Cn4ccnc4C)cc3-c3cn(C)nc3C(F)(F)F)C2=O)ncc1F [Example 163, (S)-2-(1-(5-fluoro-4-methylpyridin-2-yl)ethyl)-7-((2-methyl-1H-imidazol-1-yl)methyl)-5-(1-methyl-3-(trifluoromethyl)-1H-pyrazol-4-yl)-3,4-dihydroisoquinolin-1(2H)-one]
3 | > 938 | COc1cc(CN2CCCc3c(cc(Cn4ccnc4C)cc3-c3ccc(F)cc3C)C2=O)cc(OC)c1 [Example 141, 2-(3,5-dimethoxybenzyl)-6-(4-fluoro-2-methylphenyl)-8-((2-methyl-1H-imidazol-1-yl)methyl)-2,3,4,5-tetrahydro-1H-benzo[c]azepin-1-one]
4 | > 938 | COc1cc(CN2CCc3c(OCC(F)(F)F)cc(Cn4ccn(C)c4=N)cc3C2=O)cc(OC)c1 [Example 73, 2-(3,5-Dimethoxybenzyl)-7-((2-imino-3-methyl-2,3-dihydro-1H-imidazol-1-yl)methyl)-5-(2,2,2-trifluoroethoxy)-3,4-dihydroisoquinolin-1(2H)-one]
5 | 89 | Cc1cc(C)nc([C@@H](C)N2CCc3c(cc(Cn4ccnc4C)cc3-c3cn(C)nc3C(F)(F)F)C2=O)c1 [Example 166, (R)-2-(1-(4,6-Dimethylpyridin-2-yl)ethyl)-7-((2-methyl-1H-imidazol-1-yl)methyl)-5-(1-methyl-3-(trifluoromethyl)-1H-pyrazol-4-yl)-3,4-dihydroisoquinolin-1(2H)-one]
6 | 69 | Cc1ccnc([C@H](C2CC2)N2CCc3c(cc(Cn4ccnc4C)cc3-c3ccc(F)cc3C)C2=O)c1 [Example 12, (S)-2-(Cyclopropyl(4-methylpyridin-2-yl)methyl)-5-(4-fluoro-2-methylphenyl)-7-((2-methyl-1H-imidazol-1-yl)methyl)-3,4-dihydroisoquinolin-1(2H)-one]
7 | > 938 | COc1ccnc(CN2CCc3c(cc(Cn4cc(F)sc4=N)cc3-c3cn(C)nc3C(F)(F)F)C2=O)c1 [Example 103, 7-((5-Fluoro-2-iminothiazol-3(2H)-yl)methyl)-2-((4-methoxypyridin-2-yl)methyl)-5-(1-methyl-3-(trifluoromethyl)-1H-pyrazol-4-yl)-3,4-dihydroisoquinolin-1(2H)-one]
8 | 6900 | Cc1nccn1Cc1cc2c(c(-c3cn(C)nc3C(F)(F)F)c1)CCN(CC1CCCCN1C)C2=O (centres unmarked) [Example 171, 7-((2-Methyl-1H-imidazol-1-yl)methyl)-5-(1-methyl-3-(trifluoromethyl)-1H-pyrazol-4-yl)-2-((1-methylpiperidin-2-yl)methyl)-3,4-dihydroisoquinolin-1(2H)-one]
9 | > 938 | COc1cc(CN2CCc3c(cc(Cn4ncnc4C)cc3-c3ccc(F)cc3C)C2=O)cc(OC)c1 [Example 144, 2-(3,5-Dimethoxybenzyl)-5-(4-fluoro-2-methylphenyl)-7-((5-methyl-1H-1,2,4-triazol-1-yl)methyl)-3,4-dihydroisoquinolin-1(2H)-one]
10 | < 50 | COc1cc(CN2CCc3c(cc(Cn4ccoc4=N)cc3-c3cccnc3C(F)(F)F)C2=O)cc(OC)c1 [Example 80, 2-(3,5-Dimethoxybenzyl)-7-((2-iminooxazol-3(2H)-yl)methyl)-5-(2-(trifluoromethyl)pyridin-3-yl)-3,4-dihydroisoquinolin-1(2H)-one]
11 | 3860 | Cc1nccn1Cc1cc2c(c(-c3cn(C)nc3C(F)(F)F)c1)CCN(c1ccccc1OC(C)C)C2=O [Example 256, 2-(2-Isopropoxyphenyl)-7-((2-methyl-1H-imidazol-1-yl)methyl)-5-(1-methyl-3-(trifluoromethyl)-1H-pyrazol-4-yl)-3,4-dihydroisoquinolin-1(2H)-one]
12 | < 50 | CCn1cc(-c2cc(Cn3ccoc3=N)cc3c2CCN(Cc2cc(OC)ccn2)C3=O)c(C(F)(F)F)n1 [Example 89, 5-(1-Ethyl-3-(trifluoromethyl)-1H-pyrazol-4-yl)-7-((2-iminooxazol-3(2H)-yl)methyl)-2-((4-methoxypyridin-2-yl)methyl)-3,4-dihydroisoquinolin-1(2H)-one]
13 | < 50 | Cc1ccnc(CN2CCc3c(cc(Cn4ccoc4=N)cc3-c3cn(C)nc3C(F)(F)F)C2=O)c1 [Example 88, 7-((2-Iminooxazol-3(2H)-yl)methyl)-5-(1-methyl-3-(trifluoromethyl)-1H-pyrazol-4-yl)-2-((4-methylpyridin-2-yl)methyl)-3,4-dihydroisoquinolin-1(2H)-one]
14 | > 938 | COc1ccnc(CN2CCc3c(cc(CNc4nnc5ccccn45)cc3-c3cn(C)nc3C(F)(F)F)C2=O)c1 [Example 135, 7-(([1,2,4]Triazolo[4,3-a]pyridin-3-ylamino)methyl)-2-((4-methoxypyridin-2-yl)methyl)-5-(1-methyl-3-(trifluoromethyl)-1H-pyrazol-4-yl)-3,4-dihydroisoquinolin-1(2H)-one]
15 | 845 | COc1ccnc(CN2CCc3c(cc(Cn4cnsc4=N)cc3-c3cn(C)nc3C(F)(F)F)C2=O)c1 [Example 130, 7-((5-Imino-1,2,4-thiadiazol-4(5H)-yl)methyl)-2-((4-methoxypyridin-2-yl)methyl)-5-(1-methyl-3-(trifluoromethyl)-1H-pyrazol-4-yl)-3,4-dihydroisoquinolin-1(2H)-one]
16 | 148 | CCc1cccc(CN2CCc3c(cc(Cn4ccnc4C)cc3-c3cn(C)nc3C(F)(F)F)C2=O)c1 [Example 210, 2-(3-Ethylbenzyl)-7-((2-methyl-1H-imidazol-1-yl)methyl)-5-(1-methyl-3-(trifluoromethyl)-1H-pyrazol-4-yl)-3,4-dihydroisoquinolin-1(2H)-one]
17 | 573 | Cc1nccn1Cc1cc2c(c(-c3cn(C)nc3C(F)(F)F)c1)CCN([C@@H](C)c1cc(C3CC3)nn1C)C2=O [Example 239, (S)-2-(1-(3-Cyclopropyl-1-methyl-1H-pyrazol-5-yl)ethyl)-7-((2-methyl-1H-imidazol-1-yl)methyl)-5-(1-methyl-3-(trifluoromethyl)-1H-pyrazol-4-yl)-3,4-dihydroisoquinolin-1(2H)-one]
18 | 1000 | Cc1nccn1Cc1cc2c(c(-c3cn(C)nc3C(F)(F)F)c1)CCN(Cc1cn(C)c3ccccc13)C2=O [Example 189, 7-((2-Methyl-1H-imidazol-1-yl)methyl)-2-((1-methyl-1H-indol-3-yl)methyl)-5-(1-methyl-3-(trifluoromethyl)-1H-pyrazol-4-yl)-3,4-dihydroisoquinolin-1(2H)-one]
19 | 125 | Cc1ccnc([C@H](C2CC2)N2CCc3c(cc(Cn4ccnc4)cc3-c3ccc(F)cc3C)C2=O)c1 [Example 184, (S)-7-((1H-Imidazol-1-yl)methyl)-2-(cyclopropyl(4-methylpyridin-2-yl)methyl)-5-(4-fluoro-2-methylphenyl)-3,4-dihydroisoquinolin-1(2H)-one]
20 | 159 | COc1cc(CN2CCc3c(cc(CNC(=N)C4CC4)cc3-c3ccc(F)cc3C)C2=O)cc(OC)c1 [Example 118, N-((2-(3,5-Dimethoxybenzyl)-5-(4-fluoro-2-methylphenyl)-1-oxo-1,2,3,4-tetrahydroisoquinolin-7-yl)methyl)cyclopropanecarboximidamide]
21 | 58 | Cc1nccn1Cc1cc2c(c(-c3cn(C)nc3C(F)(F)F)c1)CCN(Cc1cc(Br)c3ccccc3n1)C2=O [Example 204, 2-((4-Bromoquinolin-2-yl)methyl)-7-((2-methyl-1H-imidazol-1-yl)methyl)-5-(1-methyl-3-(trifluoromethyl)-1H-pyrazol-4-yl)-3,4-dihydroisoquinolin-1(2H)-one]
22 | 2330 | Cc1nccn1Cc1cc2c(c(-c3cn(C)nc3C(F)(F)F)c1)CCN(Cc1cn(C(C)C)c3ccccc13)C2=O [Example 193, 2-((1-Isopropyl-1H-indol-3-yl)methyl)-7-((2-methyl-1H-imidazol-1-yl)methyl)-5-(1-methyl-3-(trifluoromethyl)-1H-pyrazol-4-yl)-3,4-dihydroisoquinolin-1(2H)-one]
23 | 407 | CCc1nccn1Cc1cc2c(c(-c3cc(C)nc(C)c3)c1)CCN(Cc1cc(OC)cc(OC)c1)C2=O [Example 155, 2-(3,5-Dimethoxybenzyl)-5-(2,6-dimethylpyridin-4-yl)-7-((2-ethyl-1H-imidazol-1-yl)methyl)-3,4-dihydroisoquinolin-1(2H)-one]
24 | < 50 | Cc1nccn1Cc1cc2c(c(-c3cn(C)nc3C(F)(F)F)c1)CCN(Cc1cc(C3CC3)nn1C)C2=O [Example 148, 2-((3-Cyclopropyl-1-methyl-1H-pyrazol-5-yl)methyl)-7-((2-methyl-1H-imidazol-1-yl)methyl)-5-(1-methyl-3-(trifluoromethyl)-1H-pyrazol-4-yl)-3,4-dihydroisoquinolin-1(2H)-one]
25 | < 50 | CCn1cc(-c2cc(Cn3ccnc3NC)cc3c2CCN([C@@H](C)c2cc(OC)ccn2)C3=O)c(C(F)(F)F)n1 [Example 161, (S)-5-(1-Ethyl-3-(trifluoromethyl)-1H-pyrazol-4-yl)-2-(1-(4-methoxypyridin-2-yl)ethyl)-7-((2-(methylamino)-1H-imidazol-1-yl)methyl)-3,4-dihydroisoquinolin-1(2H)-one]
26 | < 50 | CCn1cc(-c2cc(CN3CCN(C)C3=N)cc3c2CCN(Cc2cc(OC)ccn2)C3=O)c(C(F)(F)F)n1 [Example 55, 5-(1-Ethyl-3-(trifluoromethyl)-1H-pyrazol-4-yl)-7-((2-imino-3-methylimidazolidin-1-yl)methyl)-2-((4-methoxypyridin-2-yl)methyl)-3,4-dihydroisoquinolin-1(2H)-one]
